Results: publication PMC6429585, “Synthesis, Microtubule-Binding Affinity, and Antiproliferative Activity of New Epothilone Analogs and of an EGFR-Targeted Epothilone-Peptide Conjugate” (International Journal of Molecular Sciences, 2019)
Read-outs that look alike come from different tables or passages of the source.

Experiments:
human cancer cells = tested on: human cancer cells; set-up: method as in PMID 7757983, PMID 8999970; details: cited from earlier work
HEK293 cells = assay: cells; assay type: cell-based, human; details: 72 h incubation, mean of three experiments ± SD; read-out: IC50 HEK293
Method: (§1) Experiments were performed in RPMI (SW480 cells) or DMEM (HEK293 and A431 cells) medium (Gibco) supplemented with 2 mM glutamine, 10% fetal bovine serum, 100 IU/mL penicillin, 100 µg/mL streptomycin, and 1 µg/mL amphotericin B (all from Sigma) at 37 °C and 5% CO2. Cells were seeded into 96-well microtiter plates and compounds were added in DMSO in serial dilutions in triplicate. The final DMSO (dimethylsulfoxide) concentration was 0.1%. After 72 h, a WST-1 reagent was added and the absorption was measured at 450 nm with a plate reader after 30 min to 4 h. The percentage of viable cells was calculated based on vehicle-treated cells and was plotted in GraphPadPrism. At least three independent experiments were performed.
(§2) A431 cells were obtained from CLS. The other cell lines were available in the laboratory. WST-1 was purchased from Roche.

SW480 cells = assay: cells; assay type: cell-based, human; details: 72 h incubation, mean of three experiments ± SD; read-out: IC50 SW480
Method: as §1, §2

A431 cells = assay: cells; assay type: cell-based, human; details: 72 h incubation, mean of three experiments ± SD; read-out: IC50 A431
Method: as §1, §2

[1] = Stability in complete cell culture medium (RP-HPLC); assay type: in vitro ADME; details: bovine, complete cell culture medium (RPMI with 10% FBS); 8.6 μM solution in RPMI with 10% FBS, 3 days, 37 °C; read-out: degradation in cell culture medium
Method: The stability of the epothilone-GE11 conjugate 4 in complete cell culture medium was evaluated under conditions resembling those encountered in the cytotoxicity assays. Thus, an 8.6 μM solution of 4 in RPMI with 10% FBS was incubated for 3 days at 37 °C and subsequently analyzed by RP-HPLC. Only minor degradation of 4 (<10%) was observed under these conditions (data not shown).
Synthesis, Microtubule-Binding Affinity and Antiproliferative Activity of New Epothilone Analogs and of an EGFR-Targeted Epothilone-Peptide
Fabienne Zdenka Gaugaz, Andrea Chicca, Mariano Redondo, Isabel Barasoain, José Fernando Díaz, and Karl-Heinz Altmann*
SI.1. EGFR Expression Quantification
EGFR expression levels were determined by treating cells with 1 µg/ml Cetuximab or human IgG isotype antibody and staining with a secondary Alexa Fluor 647 goat anti-human IgG.[49] The fluorescence was quantified by FACS on a FACSCanto device with a FACSDiva software and later analyzed with FlowJo (Fig. S1). […]
Figure S1: Relative quantification of EGF receptors by FACS. […]
The stability of 4 in cell culture medium was evaluated by analytical RP-HPLC. […] The mixture was centrifuged and 10 µL of the supernatant were analyzed by analytical HPLC: H2O with 0.1% TFA (A) / acetonitrile/H2O 8/2 with 0.05% TFA (B). […]

[2] = Glutathione cleavage assay (reductive disulfide cleavage, RP-HPLC); assay type: physicochemical; details: 10 mM GSH
Method: The reductive cleavage of conjugate 4 was analyzed under conditions mimicking those found in the endosome and the cytoplasm of cancer cells. Endosome-like conditions were assumed to be reproduced by a 10 mM solution of glutathione (GSH) in acetate and phosphate buffer pH 4.9; cytoplasm-like conditions entailed 10 mM GSH in phosphate buffer pH 7.4.
For cytoplasm-like conditions, 100 µL of a […] solution of conjugate 4 in degassed 100 mM phosphate buffer pH 7.4 were diluted with 400 µL of a degassed phosphate buffer and 500 µL of 20 mM glutathione in 100 mM phosphate buffer pH 7.4. Aliquots of 80 µL were removed at predefined time points, and the reaction was quenched with one volume of 10% metaphosphoric acid, giving a pH of 1 approximately. Fifty microliters of this solution were analyzed by analytical RP-HPLC. The same protocol was used for cleavage under endosome-like conditions, except that the glutathione solution was prepared in a 100 mM acetate buffer at pH 4.8, and the same buffer was also used to dilute the conjugate solution in a 100 mM phosphate buffer at pH 7.4. The final pH of the cleavage solution was 4.9.
Analytical RP-HPLC: H2O with 0.1% TFA (A)/acetonitrile/water 8/2 with 0.05% TFA (B). Linear gradient from 5% B to 80% B over 30 min. The percentage of remaining conjugate in the solutions was plotted against time (Figure 3). Analysis of the cleavage solutions by LC/MS provided information of the fractions of the various components in the redox mixture.
Figure 3 Kinetics of glutathione (GSH)-mediated reduction of epothilone-peptide conjugate 4 (173 µM 4, 10 mM GSH, pH 4.9 (endosome-like conditions), triangles, or pH 7.4 (cytoplasm-like conditions), circles). Conjugate 4 was added to the respective GSH solutions as a solution in phosphate buffer pH 7.4 at room temperature, to reach a total concentration of 173 μM. Samples were quenched at different time points with 10% metaphosphoric acid and analyzed by RP-HPLC. […]

Compound | IC50 values for most cell lines (human cancer cells) | IC50 (HEK293 cells) [nM] | IC50 (SW480 cells) [nM] | IC50 (A431 cells) [nM] | metabolised at 72 h, 8.6 μM [1] [%] | half-life at 173 µM ([2]; acetate and phosphate buffer pH 4.9, read-out: half-life, endosome-like conditions) [s] | residual conjugate 1 min after addition, cytoplasm-like conditions ([2]; phosphate buffer pH 7.4, 1 min) | half-life at 173 µM ([2]; phosphate buffer pH 7.4, read-out: estimated half-life, cytoplasm-like conditions) [s]
C/C(=C\c1csc(C)n1)[C@@H]1C[C@@H]2O[C@]2(C)CCC[C@H](C)[C@H](O)[C@@H](C)C(=O)C(C)(C)[C@@H](O)CC(=O)O1 [Epo B, Epothilone B] | sub-nanomolar | – | – | – | – | – | – | –
CC[C@H](C)[C@H](NC(=O)[C@@H](NC(=O)[C@H](CC(N)=O)NC(=O)[C@H](CCC(N)=O)NC(=O)[C@@H]1CCCN1C(=O)[C@@H](NC(=O)[C@H](Cc1ccc(O)cc1)NC(=O)CNC(=O)[C@H](Cc1ccc(O)cc1)NC(=O)[C@H](Cc1c[nH]c2ccccc12)NC(=O)[C@H](Cc1c[nH]cn1)NC(=O)[C@H](Cc1ccc(O)cc1)NC(=O)[C@@H](N)CSSCCn1c(C)nc2cc([C@@H]3C[C@@H]4C[C@H]4CCC[C@H](C)[C@H](O)[C@@H](C)C(=O)C(C)(C)CCC(=O)O3)ccc21)[C@@H](C)O)C(C)C)C(N)=O [compound 4] | – | 31.1 ± 6.21 | 181 ± 25.9 | 74.7 ± 6.65 | < 10 | 66 | no residual conjugate was detectable | ~12
